Results: US9040481B2, “Methods for treating steatotic disease” (The General Hospital Corporation, priority 2010, dated 2015)
Where no end group is shown, it is not given here. FAM = 5-carboxyfluorescein (5-FAM), fluorescent label attached at the amino terminus

How the values were obtained:
[1] = test system: hepatocytes isolated from ob/ob mice; type: cell-based, mouse; settings: for specificity of intracellular transport: distribution versus pattern of mitotracker: Ob/Ob hepatocytes, 18 hours, 1 microM FAM peptide, 1 microM Mitotracker, 25 mM glucose
Experimental: GLP-1(28-36)amide (FIAWLVKGRamide (SEQ ID NO:1) and the GLP-1(28-37) Arg-34 glycine extended (FIAWLVRGRG (SEQ ID NO:4)) peptides were prepared by solid phase synthesis and purified by sequential HPLC to >98% single component homogeneity. Verification of the peptides was done by both amino acid composition analysis and by mass spectroscopy. Fluorescent-labeled GLP-1(28-36)amide was prepared with the green fluorescence compound, 5-carboxyfluorescein (5-FAM, fluorescein amidite) and added to hepatocytes isolated from the liver of an ob/ob mouse along with Mitotracker, a specific red fluorochrome mitochondrial marker from Molecular Probes (AnaSpec, Fremont Calif.). The mitotracker compound used requires oxidation to develop fluorescence emission and fluoresces only if cells are viable and actively respiring. The oxidized red fluorochrome stains mitochondria of live and poorly respiring cells (RedCMXRos #7512) and the reduced red fluorochrome stains only actively respiring cells (Red CM-H2XRos #7513).
Mitochondrial localization was evaluated as follows, Hepatocytes were isolated from ob/ob mice and diet-induced obese (DIO) mice and plated overnight on 4 well glass slides (NUNC, Inc., IL) in maintenance medium (12), Next day cells were treated with 10 microM PAM-labeled GLP-1 (28-36)amide peptide (FAM-FIAWLVKGRamide (SEQ ID NO:1)) and 50 nM MitoTracker Red CM-H2Ros for 5 minutes in no dye, no PBS, 5 mM Glucose DMEM medium. Cells were washed with the same medium and images were taken 15 minutes later using Nikon Diaphot 300 inverted microscope SPOT RT camera and SPOT 3.3.1 software (Diagnostic Instruments, Inc., MI).
Whether intracellular transport of FAM-GLP-1(28-36)amide is specific for […] was evaluated in hepatocytes isolated from Ob/Ob mice and treated for 18 hours with 1 microM Mitotracker Red CM-H2XRos and 1 microM of TAM labeled GLP-1 (28-36) peptide or irrelevant peptide controls: synapsin I-derived petide (FAM-LRRRISDANFamide (SEQ NO:13)), AnaSpec Cat #61756; IP3R-derived peptide (FAM-GRRESLTSFGamide (SEQ ID NO:14)), AnaSpec cat. #61731; or angiotensin I peptide (FAM-DRVYIHPFHL (SEQ ID NO:15)), AnaSpec cat. #61185, in 25 mM glucose maintenance medium. Irrelevant peptides were obtained from AnaSpec, Fremont, Calif. Celts were washed with 25 mM glucose Krebs-Ringer buffer. Images were taken using Nikon Diaphot 300 inverted microscope SPOT RT camera and SPOT 3.3.1 software (Diagnostic Instruments, Inc., MI).

[2] = test system: isolated mouse hepatocytes
[3] = mouse, in vivo
[4] = mouse, in vivo; remark: listed apart in the source

FAM-DRVYIHPFHL ({FAM}-DRVYIHPFHL) [angiotensin I peptide, irrelevant peptide control, AnaSpec cat. #61185]
specificity of intracellular transport: distribution versus pattern of mitotracker [1]: do not distribute in hepatocytes with the pattern of distribution of mitotracker

FAM-FIAWLVKGRamide ({FAM}-FIAWLVKGR-NH2; UniProt P01275 119-127, looked up, fragment) [FAM-GLP-1(28-36)amide, GLP-1(28-36)amide labeled at the amino-terminus with 5-carboxyfluorescein (FAM)]
specificity of intracellular transport: distribution versus pattern of mitotracker [1]: appears to be specific for GLP-1(28-36)amide

FAM-GLP-1: fluorescence-labeled GLP-1
binding to the surface of isolated mouse hepatocytes [2]: no binding

FAM-GRRESLTSFGamide ({FAM}-GRRESLTSFG-NH2) [IP3R-derived peptide, irrelevant peptide control, AnaSpec cat. #61731]
specificity of intracellular transport: distribution versus pattern of mitotracker [1]: do not distribute in hepatocytes with the pattern of distribution of mitotracker

FAM-LRRRISDANFamide [synapsin I-derived petide]
specificity of intracellular transport: distribution versus pattern of mitotracker [1]: do not distribute in hepatocytes with the pattern of distribution of mitotracker

FAM-glucagon: FAM-labeled control hormone known to have receptors on hepatocytes
binding to the surface of isolated mouse hepatocytes [2]: readily binds to the surface of hepatocytes

FIAWLVKGR-NH2 [GLP-1(28-36)amide, FIAWLVKGRamide]
time to enter stressed hepatocytes [1]: ≤ 15 min
MCR of the peptide [3]: 40 to 50 mL/min
mechanism of transport into hepatocytes (GLP-1 receptor): occurs by GLP-1 receptor-independent mechanisms
activities of the mice [4]: no observable change in the activities
